The values that follow are results of earlier work, collected in patent US5824668A, “Formulation for administration of steroid compounds” (priority 1996, dated 1998).

The test system of one data set is genetically obese mice. As to conditions: genetically obese mice, variety of routes; cited from earlier work.
The test system of data set [1] is genetically obese and diabetic mice. As to conditions: genetically obese and diabetic mice; cited from earlier work.
Data set [2] concerns severely diabetic mammals. As to conditions: oral; cited from earlier work.
The subject of a further data set is rats and mice. The note with it: cited from earlier work.
For data set [3] the following is noted: humans; cited from earlier work.
The test system of the next data set is female patients. As to conditions: cited from earlier work.

With `C[C@]12CC[C@H](O)CC1=CC[C@@H]1[C@@H]2CC[C@]2(C)C(=O)CC[C@@H]12` [DHEA, 3-β-hydroxy-androst-5-en-17-one], the “rate of weight gain” value in the data set on genetically obese mice is reported as “decreased the rate of weight gain”. Besides, in data set [1], the development of diabetes result is given as “markedly reduced the development of diabetes”. Also, in data set [2], the glucose tolerance result is reported as “improved glucose tolerance” and the hyperglycemia entry was “restored hyperglycemia to normal levels”. For the same compound, the “control of diabetes and obesity” value in the data set with rats and mice is “effective in controlling diabetes and obesity”. The metabolism entry in data set [3] is “metabolized to testosterone (17-β-hydroxy-androst-4-en-3-one) and estradiol”. For the same compound, the acne result with female patients is recorded as “severe acne”.
